molecular target: T1, human TLR8 (Homo sapiens, UniProt Q9NR97); experiment: HEK293-Blue-hTLR-8 cells assay (SEAP reporter, R848 stimulation); format: cell-based; conditions: HEK293-Blue-hTLR8 cells, R848, 20 hrs; read-out: HEK/hTLR8 IC50
T1 construct: host or cells: HEK293 (HEK-Blue)
T1 sequence (Q9NR97 27-1041): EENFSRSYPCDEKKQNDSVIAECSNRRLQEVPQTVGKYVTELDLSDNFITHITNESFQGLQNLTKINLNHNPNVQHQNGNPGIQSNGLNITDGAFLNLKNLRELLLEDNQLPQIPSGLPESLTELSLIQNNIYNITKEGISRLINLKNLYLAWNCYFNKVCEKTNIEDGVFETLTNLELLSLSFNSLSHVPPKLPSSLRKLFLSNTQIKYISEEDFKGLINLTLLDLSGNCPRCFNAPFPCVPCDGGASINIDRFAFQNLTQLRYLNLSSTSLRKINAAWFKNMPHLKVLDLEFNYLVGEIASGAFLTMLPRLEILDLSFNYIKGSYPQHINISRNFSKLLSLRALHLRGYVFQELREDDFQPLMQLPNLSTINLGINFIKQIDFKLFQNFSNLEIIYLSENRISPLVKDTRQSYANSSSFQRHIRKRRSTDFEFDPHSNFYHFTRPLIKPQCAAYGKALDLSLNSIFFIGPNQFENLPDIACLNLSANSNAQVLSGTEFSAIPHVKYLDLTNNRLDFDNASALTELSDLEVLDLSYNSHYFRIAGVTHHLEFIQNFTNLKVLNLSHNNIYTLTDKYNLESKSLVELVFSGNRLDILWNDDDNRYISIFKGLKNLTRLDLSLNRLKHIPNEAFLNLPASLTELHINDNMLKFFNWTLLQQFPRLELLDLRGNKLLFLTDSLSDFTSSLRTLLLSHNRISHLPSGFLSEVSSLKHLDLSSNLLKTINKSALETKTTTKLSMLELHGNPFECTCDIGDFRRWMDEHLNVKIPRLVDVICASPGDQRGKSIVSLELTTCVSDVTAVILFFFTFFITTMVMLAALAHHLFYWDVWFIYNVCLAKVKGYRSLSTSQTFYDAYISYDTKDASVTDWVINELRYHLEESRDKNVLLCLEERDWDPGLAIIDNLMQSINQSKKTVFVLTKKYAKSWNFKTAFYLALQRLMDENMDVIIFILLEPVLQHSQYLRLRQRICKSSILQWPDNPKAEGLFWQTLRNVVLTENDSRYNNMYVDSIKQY
Source text: A stable HEK293-Blue-hTLR-8 cell line was purchased from InvivoGen (Cat.#: hkb-htlr8, San Diego, California, USA). These cells were originally designed for studying the stimulation of human TLR8 by monitoring the activation of NF-κB. A SEAP (secreted embryonic alkaline phosphatase) reporter gene was placed under the control of the IFN-β minimal promoter fused to five NF-κB and AP-1-binding sites. The SEAP was induced by activating NF-κB and AP-1 via stimulating HEK-Blue hTLR8 cells with TLR8 ligands. Therefore, the reporter expression was declined by TLR8 antagonist under the stimulation of a ligand, such as R848, for incubation of 20 hrs. The cell culture supernatant SEAP reporter activity was determined using QUANTI-Blue™ kit (Cat.#: rep-qb1, Invivogen, San Diego, Ca, USA) at a wavelength of 640 nm, a detection medium that turns purple or blue in the presence of alkaline phosphatase.
HEK293-Blue-hTLR8 cells were incubated at a density of 250,000-450,000 cells/mL in a volume of 170 µL in a 96-well plate in Dulbecco's Modified Eagle's medium (DMEM) containing 4.5 g/L glucose, 50 U/mL penicillin, […], […], 2 mM L-glutamine, 10% (v/v) heat-inactivated fetal bovine serum with addition of 20 µL test compound in a serial dilution in the presence of final DMSO at 1% and 10 µL of 60uM R848 in above DMEM, perform incubation under 37 °C in a CO2 incubator for 20 hrs. Then 20 µL of the supernatant from each well was incubated with 180 µL Quanti-blue substrate solution at 37°C for 2 hrs and the absorbance was read at 620-655 nm using a spectrophotometer. The signaling pathway that TLR8 activation leads to downstream NF-κB activation has been widely accepted, and therefore similar reporter assay was modified for evaluating TLR8 antagonist.

SMILES	IC50
C[C@@H]1CN(c2ccc(C#N)c3ncccc23)C[C@H](CN2CCN(c3ccc4c(n3)[C@H](C)NC4)CC2)O1 (single isomer, unassigned) [Example 66]	0.009 µM
C[C@@H]1Cc2cnc(N3CCN(C[C@H]4CN(c5ccc(C#N)c6ncccc56)C[C@@H](C)O4)CC3)cc2CN1 (single isomer, unassigned) [Example 77]	0.007 µM
C[C@@H]1CN(c2ccc(C#N)c3ncccc23)C[C@H](CN2C[C@@H]3[C@@H](C2)OCCN3c2cnc3c(c2)CCNC3)O1 [Example 52, 5-[(2S,6R)-2-[[(4aR,7aR)-4-(5,6,7,8-tetrahydro-1,7-naphthyridin-3-yl)-2,3,4a,5,7,7a-hexahydropyrrolo[3,4-b][1,4]oxazin-6-yl]methyl]-6-methylmorpholin-4-yl]quinoline-8-carbonitrile]	0.026 µM
C[C@@H]1CN(c2ccc(C#N)c3ncccc23)C[C@H](CN2CC3(C2)CN(c2cnc4c(c2)CNCC4)CCO3)O1 [Example 47, 5-[(2R,6S)-2-methyl-6-[[8-(5,6,7,8-tetrahydro-1,6-naphthyridin-3-yl)-5-oxa-2,8-diazaspiro[3.5]nonan-2-yl]methyl]morpholin-4-yl]quinoline-8-carbonitrile]	0.02 µM
C[C@@H]1CN(c2ccc(C#N)c3ncccc23)C[C@H](CN2CCCN(c3ncc4c(n3)CCNC4)CC2)O1 [Example 39, 5-[(2R,6S)-2-methyl-6-[[4-(5,6,7,8-tetrahydropyrido[4,3-d]pyrimidin-2-yl)-1,4-diazepan-1-yl]methyl]morpholin-4-yl]quinoline-8-carbonitrile]	0.012 µM
C[C@@H]1CN(c2ccc(C#N)n3ncc(F)c23)C[C@H](CN2CCN(c3cnc4c(c3)CNC4)CC2)O1 [Example 26, 4-[(2S,6R)-2-[[4-(6,7-dihydro-5H-pyrrolo[3,4-b]pyridin-3-yl)piperazin-1-yl]methyl]-6-methyl-morpholin-4-yl]-3-fluoro-pyrazolo[1,5-a]pyridine-7-carbonitrile]	0.049 µM
C[C@@H]1CN(c2ccc(C#N)c3ncccc23)C[C@H](CN2CCC(Nc3ncc4c(n3)CCNC4)C2)O1 (stereo partly drawn) [Example 57, 5-[(2R,6S)-2-methyl-6-[[3-(5,6,7,8-tetrahydropyrido [4,3-d]pyrimidin-2-ylamino)pyrrolidin-1-yl]methyl]morpholin-4-yl] quinoline-8-carbonitrile]	0.037 µM
C[C@@H]1CN(c2ccc(C#N)c3ncccc23)C[C@H](CN2CCN(c3ccc4c(c3)CN(CCO)C4)CC2)O1 [Example 16, 5-[(2S,6R)-2-[[4-[2-(2-hydroxyethyl)isoindolin-5-yl]piperazin-1-yl]methyl]-6-methyl-morpholin-4-yl]quinoline-8-carbonitrile]	0.01 µM
C[C@@H]1CN(c2ccc(C#N)c3ncccc23)C[C@H](CN2CCN(c3ccc4c(c3)C(O)CN(C)C4)CC2)O1 (stereo partly drawn) [Example 59, 5-[(2S,6R)-2-[[4-(4-hydroxy-2-methyl-3,4-dihydro-1H-isoquinolin-6-yl)piperazin-1-yl]methyl]-6-methyl-morpholin-4-yl]quinoline-8-carbonitrile]	0.011 µM
C[C@@H]1CN(c2ccc(C#N)c3ncccc23)C[C@H](CN2CCN(c3ccc4c(c3)CNC4)CC2CO)O1 (stereo partly drawn) [Example 15, 5-[(2S,6R)-2-[[2-(hydroxymethyl)-4-isoindolin-5-yl-piperazin-1-yl]methyl]-6-methyl-morpholin-4-yl]quinoline-8-carbonitrile]	0.011 µM
C[C@@H]1CN(c2ccc(C#N)c3ncccc23)C[C@H](CN2CCN(c3ccc4c(n3)[C@@H](C)NC4)CC2)O1 (single isomer, unassigned) [Example 65]	0.009 µM
C[C@@H]1CN(c2ccc(C#N)c3ncccc23)C[C@H](CN2CCN(c3ccc4c(c3)CCNC4CO)CC2)O1 (stereo partly drawn) [Example 24, 5-[(2S,6R)-2-[[4-[1-(hydroxymethyl)-1,2,3,4-tetrahydroisoquinolin-6-yl]piperazin-1-yl]methyl]-6-methyl-morpholin-4-yl]quinoline-8-carbonitrile]	0.022 µM
C[C@@H]1CN(c2ccc(C#N)c3ncccc23)C[C@H](CN2CCN(c3cccc4c3CNC4)CC2)O1 [Example 2, 5-[(2S,6R)-2-[(4-isoindolin-4-ylpiperazin-1-yl)methyl]-6-methyl-morpholin-4-yl] quinoline-8-carbonitrile]	0.008 µM
C[C@@H]1CN(c2ccc(C#N)c3ncccc23)C[C@H](CN2CCC(Nc3ccc4c(c3)CNC4)C2)O1 (stereo partly drawn) [Example 38, 5-[(2S,6R)-2-[[3-(isoindolin-5-ylamino)pyrrolidin-1-yl]methyl]-6-methyl-morpholin-4-yl]quinoline-8-carbonitrile]	0.05 µM
C[C@@H]1CN(c2ccc(C#N)c3ncccc23)C[C@H](CN2CCN(c3cnc4c(c3)CNCC4)C(C)(C)C2)O1 [Example 56, 5-[(2S,6R)-2-[[3,3-dimethyl-4-(5,6,7,8-tetrahydro-1,6-naphthyridin-3-yl)piperazin-1-yl]methyl]-6-methyl-morpholin-4-yl]quinoline-8-carbonitrile]	0.012 µM
C[C@@H]1CN(c2ccc(C#N)c3ncccc23)C[C@H](CN2C[C@H]3CN(c4ccc5c(n4)CCNC5)CC[C@@H]32)O1 (single isomer, unassigned) [Example 54]	0.022 µM

The next molecules have a lower IC50 than those just listed; values first:

IC50	SMILES
0.006 µM	C[C@@H]1CN(c2ccc(C#N)c3ncccc23)C[C@H](CN2CCN(c3cc4c(cn3)CCNC4)CC2)O1 [Example 20, 5-[(2R,6S)-2-methyl-6-[[4-(5,6,7,8-tetrahydro-2,6-naphthyridin-3-yl)piperazin-1-yl]methyl]morpholin-4-yl]quinoline-8-carbonitrile]
0.002 µM	C[C@@H]1CN(c2ccc(C#N)c3nccnc23)C[C@H](CN2CCN(c3ccc4c(n3)CN[C@@H]4C)CC2)O1 (single isomer, unassigned) [Example 79]
0.002 µM	C[C@@H]1CN(c2ccc(C#N)c3nccnc23)C[C@H](CN2CCN(c3cc4c(cn3)[C@H](C)NCC4)CC2)O1 (single isomer, unassigned) [Example 85]
0.002 µM	C[C@@H]1CN(c2ccc(C#N)c3nccnc23)C[C@H](CN2CCN(c3cc4c(cn3)CN[C@@H](C)C4)CC2)O1 (single isomer, unassigned) [Example 84]
0.005 µM	C[C@@H]1CN(c2ccc(C#N)c3ncccc23)C[C@H](CN2CC3(C2)CN(c2ncc4c(n2)CCNC4)CCO3)O1 [Example 51, 5-[(2R,6S)-2-methyl-6-[[8-(5,6,7,8-tetrahydropyrido[4,3-d]pyrimidin-2-yl)-5-oxa-2,8-diazaspiro[3.5]nonan-2-yl]methyl]morpholin-4-yl]quinoline-8-carbonitrile]
0.004 µM	C[C@@H]1CN(c2ccc(C#N)c3ncccc23)C[C@H](CN2CC3(C2)CN(c2ccc4c(c2)CCNC4)CCO3)O1 [Example 44, 5-[(2R,6S)-2-methyl-6-[[8-(1,2,3,4-tetrahydroisoquinolin-6-yl)-5-oxa-2,8-diazaspiro[3.5]nonan-2-yl]methyl]morpholin-4-yl]quinoline-8-carbonitrile]
< 0.003 µM	C[C@@H]1CN(c2ccc(C#N)c3ncccc23)C[C@H](CN2CCN(c3ncc4c(n3)CCNC4)CC2)O1 [Example 29, 5-[(2R,6S)-2-methyl-6-[[4-(5,6,7,8-tetrahydropyrido[4,3-d]pyrimidin-2-yl)piperazin-1-yl]methyl]morpholin-4-yl]quinoline-8-carbonitrile]
0.003 µM	C[C@@H]1Cc2cnc(N3CCN(C[C@H]4CN(c5ccc(C#N)c6nccnc56)C[C@@H](C)O4)CC3)cc2CN1 (single isomer, unassigned) [Example 82]

— patent publication EP3807270B1, “NOVEL HETEROARYL HETEROCYCLYL COMPOUNDS FOR THE TREATMENT OF AUTOIMMUNE DISEASE” (F. Hoffmann-La Roche AG, priority 2018, dated 2019)
